{"source": "patent US20240139166A1", "about": "“OPHTHALMIC COMPOSITIONS FOR PRESBYOPIA” (Sydnexis, Inc., priority 2021, published 2024)", "test": "Stability of pilocarpine in deuterated water (pilocarpic acid formation)", "assay_type": "physicochemical", "method": "The stability of pilocarpine was tested over a range of concentrations. Pilocarpic acid formation, a major degradant of pilocarpine, was measured. […] The stability of pilocarpine, as measured by the percent of pilocarpic acid formation, was measured at different pH/pD values, as depicted in FIG. 2.", "data": [{"smiles": "CC[C@@H]1C(=O)OC[C@@H]1Cc1cncn1C", "note": "[pilocarpine]", "values": [{"measurement": "Stability (pilocarpic acid formation) in deuterated water versus non-deuterated water", "setting": "FIG. 1", "result": "improved stability in deuterated water as compared to non-deuterated water"}, {"measurement": "Stability (pilocarpic acid formation) over a range of pilocarpine concentrations", "setting": "FIG. 1", "result": "improved stability at higher concentrations of pilocarpine"}, {"measurement": "Stabilizing factor of deuterated water versus pilocarpine concentration", "setting": "FIG. 1", "result": "stabilizing factor increases as pilocarpine concentration decreases"}, {"measurement": "Rate of pilocarpic acid formation at different pH/pD values", "setting": "FIG. 2", "result": "linear log/log relationship was identified between the log(rate of pilocarpic acid formation) and pH"}]}]}
